Measurements from PubChem BioAssay AID1188 (EPA DSSTox, 2008).
Activity calls are given as the source filed them.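 The calls were made as follows: active = a concentration killing half the fathead minnows in the acute test was determined; inconclusive = some fish died but not half at top dose; inactive = no fish died even at top dose.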

These compounds were tested on Fathead minnow (Pimephales promelas) acute toxicity, lethality (assay: DSSTox (EPAFHM) EPA Fathead Minnow Acute Toxicity).
Text: The EPA Fathead Minnow Acute Toxicity database was generated by the U.S. EPA Mid-Continental Ecology Division (MED) for the purpose of developing an expert system to predict acute toxicity from chemical structure based on mode of action considerations. […] A second valuable aspect of this database, from a QSAR modeling perspective, is the inclusion of general mode-of-action (MOA) classifications of acute toxicity response for individual chemicals derived from study results. MOA assignments are biologically based classifications, allowing definition of chemical similarity based upon biological activity instead of organic chemistry functional class as most commonly employed in QSAR study. MOA classifications should strengthen the scientific basis for construction of individual QSARs. However, it is cautioned that the broad MOA categorizations should not be construed to represent a single molecular mechanism; for example, CNS seizure agents and respiratory inhibitors are known to act through a variety of receptors. The EPA Fathead Minnow database and results have been used by EPA MED to build components of the ASTER prediction system, which incorporates MOA-based QSARs for the prediction of aquatic toxicity of environmental and industrial chemicals. Briefly, MOA classifications for individual chemicals, derived from experiments and provided in the EPA Fathead Minnow database, were used to derive substructural rules for assigning a new chemical to an MOA category based solely on chemical structure. Once a new chemical is assigned to an MOA category on this basis, the logP-based QSAR for that MOA category is applied.
The DSSTox EPAFHM database (available from the DSSTox Source URL) includes information pertaining to organic chemical class assignments (ChemClass_FHM), acute toxicity in fathead minnow (LC50_mg), dose-response assessments (LC50_Ratio, ExcessToxicityIndex), behavioral assessments (FishBehaviorTest), joint toxicity MOA evaluations of mixtures (MOA_MixtureTest), and additional MOA evaluation of fish acute toxicity syndrome (FishAcuteToxSyndrome) in rainbow trout. All of these indicators, to the extent available, were considered in the determination of MOA and, additionally, were used to determine a level of confidence in the MOA assignment for each chemical (MOA_Confidence). […] Activity Score is mapping of LOG10 (1/LC50_mmol) activity values spanning activity range [MIN, MAX] onto Integer 1-100 Activity range, where 100 is highest potency and 1 is lowest. If Activity Outcome is "active": Activity Score = 100 * INTEGER[(log10(1/ LC50_mmol) - MIN)/([…])].

Row | SMILES | Potency [µM] | outcome
1 | Cn1c(=O)c2c(ncn2C)n(C)c1=O | 778 | –
2 | Cc1ccc(O)c(C)c1 | 136 | –
3 | Nc1ccc(Cl)cc1 | 246 | –
4 | CCCCCCCCCO | 39.5 | –
5 | c1ccc2occc2c1 | 119 | –
6 | Cc1ccc(N)cc1 | 1490 | –
7 | CCCSSCCC | 17 | –
8 | Cc1ccc(SSc2ccc(C)cc2)cc1 | – | inactive; moa not determined either due to lack of toxicity at saturation or late test res
9 | C=CC=O | 0.303 | –
10 | Brc1ccsc1 | 38 | –
11 | CS(C)=O | 435000 | –
12 | CC12CCC(CC1)C(C)(C)O2 | 661 | –
13 | CCCN(CCC)CCC | 355 | –
14 | CCCSCCC | 184 | –
15 | Nc1ccc([N+](=O)[O-])cc1 | 905 | –
16 | O=C(Oc1ccccc1)c1ccccc1O | 5.51 | –
17 | CCNCC | 11700 | –
18 | CCCCC(=O)CCCC | 218 | –
19 | Oc1cc(Cl)c(Cl)cc1O | 4.97 | –
20 | Nc1ccccc1C(=O)c1ccc(Cl)cc1 | 9.15 | –
21 | CCCCCCCCCCCCc1ccc(N)cc1 | – | inactive; moa not determined either due to lack of toxicity at saturation or late test res
22 | CC(=O)c1cccn1C | 1280 | –
23 | CCC#N | 27600 | –
24 | CCCCCCCCC#N | 37.7 | –
25 | CC1(C)OCC(CO)O1 (stereo unspecified) | 126000 | –
26 | CCCSCCSCCC | 42.2 | –

Row | SMILES | Potency [µM] | outcome
27 | O=Cc1cc(Br)ccc1O | 6.46 | –
28 | CCOP(=O)(Cc1ccccc1)OCC | 1470 | –
29 | COc1cc(C=O)cc(Br)c1O | 258 | –
30 | CC(C)(C)SC(C)(C)C | 199 | –
31 | CCCCCCCCc1ccc(N)cc1 | 0.584 | –
32 | BrCC1CCCCO1 (stereo unspecified) | 1150 | –
33 | CC(C)(O)CCc1ccccc1 | 404 | –
34 | Oc1ccccc1Cl | 88.7 | –
35 | O=C1NS(=O)(=O)c2ccccc21 | 82000 | –
36 | CC1(C)[C@H]2CC[C@]1(C)[C@H](O)C2 | 410 | –
37 | COCCN | 6980 | –
38 | COc1cc(O)c(C=O)c(OC)c1 | 14.7 | –
39 | Clc1cccc(Cl)c1 | 54.6 | –
40 | CCOP(=S)(OCC)Oc1nc(Cl)c(Cl)cc1Cl | 0.907 | –
41 | CC(C)C(C(=O)OC(C#N)c1cccc(Oc2ccccc2)c1)c1ccc(Cl)cc1 (stereo unspecified) | 0.0121 | –
42 | CCOC(=O)c1ccc(N)cc1 | 216 | –
43 | BrC(Br)c1ccccc1C(Br)Br | 1.04 | –
44 | CCCCCCCCOC(=O)c1ccc(C(=O)OCCCCCCCC)cc1 | – | inactive; moa not determined either due to lack of toxicity at saturation or late test res
45 | c1ccc(N(c2ccccc2)c2ccccc2)cc1 | – | inactive; moa not determined either due to lack of toxicity at saturation or late test res
46 | Nc1c(Cl)c(Cl)cc(Cl)c1Cl | 1.17 | –
47 | CC(C)c1ccccc1 | 52.6 | –
48 | C1CN2CCN1CC2 | 15400 | –
49 | O=Cc1ccc([N+](=O)[O-])cc1 | 66.8 | –
50 | CNC(=O)Oc1ccccc1OC(C)C | 42.1 | –
51 | Cc1ccc(C)cc1 | 83.5 | –
52 | CCN(CCO)c1cccc(C)c1 | 295 | –

Row | SMILES | Potency [µM] | outcome
53 | COP(=S)(OC)SCn1nnc2ccccc2c1=O | 0.202 | –
54 | CCCCCCCCCC(C)=O | 8.81 | –
55 | CC(Cl)CCl (stereo unspecified) | 1120 | –
56 | ClCc1ccc(CCl)cc1 | 0.223 | –
57 | Cc1ccc(N)c(Cl)c1 | 254 | –
58 | CCCCCCOc1ccc(C=O)cc1OC | 11.3 | –
59 | N#CCC#N | 8.48 | –
60 | COc1ccccc1C(N)=O | 794 | –
61 | CCCCC=O | 150 | –
62 | O=[N+]([O-])c1ccccc1O | 1150 | –
63 | C=CCNc1ccccc1 | 270 | –
64 | CC(=O)c1ccc(Cl)c([N+](=O)[O-])c1 | 27.6 | –
65 | O=[N+]([O-])c1ccc(O)cc1 | 322 | –
66 | COc1cc(OC)c(OC)cc1C=O | 252 | –
67 | C#CCCO | 515 | –
68 | Cc1ccc(S(=O)(=O)n2ccnc2)cc1 | 188 | –
69 | C[N+](C)(C)C | 4220 | –
70 | Oc1ccc(Oc2ccccc2)cc1 | 26.6 | –
71 | CCC[CH2][Sn]([CH2]CCC)([CH2]CCC)[CH2]CCC | 0.13 | –
72 | ClC=C(Cl)Cl | 336 | –
73 | CC(C)c1ccc2c(c1)CC[C@H]1[C@](C)(C(=O)O)CCC[C@]21C | 6.99 | –
74 | C=CC(O)CCC (stereo unspecified) | 304 | –
75 | Cc1cc(C(C)(C)C)c(O)c(C(C)(C)C)c1 | 1.65 | –
76 | CCCCCCCCCc1ccc(O)cc1 | 0.635 | –
77 | C#CC1(O)CCCCC1 | 2060 | –
78 | O[C@@H]1CCCC[C@H]1c1ccccc1 | 252 | –

Row | SMILES | Potency [µM] | outcome
79 | O=[N+]([O-])c1cccc(P(=O)(c2cccc([N+](=O)[O-])c2)c2cccc([N+](=O)[O-])c2)c1 | – | inactive; moa not determined either due to lack of toxicity at saturation or late test res
80 | C#CC(C)(O)c1ccccc1 (stereo unspecified) | 773 | –
81 | CCC(C)C=O (stereo unspecified) | 116 | –
82 | CC(C)O | 144000 | –
83 | [N-]=[N+]=[N-] | 84 | –
84 | CCCSCCCCSCCC | 14.5 | –
85 | Oc1cccc2ccccc12 | 32.1 | –
86 | Oc1c(Br)cc(Br)cc1Br | 19.8 | –
87 | CCCCCCOC(C)=O | 30.5 | –
88 | Nc1ccc(Br)cc1 | 276 | –
89 | CCCCCCO | 956 | –
90 | ClC(Cl)Cl | 592 | –
91 | NC(=O)c1c(Cl)cccc1Cl | 2470 | –
92 | NCCO | 33900 | –
93 | Oc1cccnc1Cl | 4800 | –
94 | Clc1cc(Cl)c(SSc2cc(Cl)c(Cl)cc2Cl)cc1Cl | – | inactive; moa not determined either due to lack of toxicity at saturation or late test res
95 | O=[N+]([O-])c1cccc(Cl)c1 | 119 | –
96 | Nc1ccc(F)cc1 | 152 | –
97 | CCCc1ccc(O)cc1 | 80.8 | –
98 | CC1(N)CCC(C(C)(C)N)CC1 (stereo unspecified) | 383 | –
99 | ClCCCCl | 982 | –
100 | ClC(Cl)=C(Cl)Cl | 99.5 | –
101 | CCN1C(=O)CC(=O)N(CC)C1=S | 22500 | –
102 | C=CC(=O)OCCCCCCCCCCCC | – | inactive; moa not determined either due to lack of toxicity at saturation or late test res
103 | CCCCCCCCCCCC(N)=O | – | inactive; moa not determined either due to lack of toxicity at saturation or late test res
104 | OCC#CCO | 623 | –

Row | SMILES | Potency [µM] | outcome
105 | c1ccc(SSc2ccccc2)cc1 | 0.504 | –
106 | CCCCOC(=O)c1ccc(C(=O)OCCCC)cc1 | 2.12 | –
107 | OCC(Br)CBr (stereo unspecified) | 326 | –
108 | CNC(=O)O/N=C/C(C)(C)SC | 4.52 | –
109 | COc1cc(C=O)ccc1O | 551 | –
110 | CCCCCCBr | 20.9 | –
111 | O=Cc1cc([N+](=O)[O-])ccc1Cl | 20.9 | –
112 | Nc1ccccc1Cl | 45 | –
113 | CCOC(=O)CC(=O)OCC | 91.8 | –
114 | CCCCCCCCCCCCCN | 0.328 | –
115 | CC(C)(C)CN | 5450 | –
116 | CNc1ccc(F)cc1 | 307 | –
117 | Cc1ccncc1 | 4330 | –
118 | CNC(=O)O/N=C(\SC)C(=O)N(C)C | 30.9 | –
119 | CC(O)CCl (stereo unspecified) | 2590 | –
120 | OCC(Cl)(Cl)Cl | 2000 | –
121 | CC(C)[C@@H]1CC[C@@H](C)C[C@H]1O | 121 | –
122 | Oc1c(Cl)c(Cl)c(Cl)c(Cl)c1Cl | 0.912 | –
123 | CC(Cl)(Cl)Cl | 355 | –
124 | c1ccc(-c2ccncc2)cc1 | 104 | –
125 | O=c1cc[nH]c(=O)[nH]1 | – | inactive; moa not determined either due to lack of toxicity at saturation or late test res
126 | C=CCO | 5.51 | –
